Laboratory results reported in PMC11473416, “Coumarin-chalcone derivatives as dual NLRP1 and NLRP3 inflammasome inhibitors targeting oxidative stress and inflammation in neurotoxin-induced HMC3 and BE(2)-M17 cell models of Parkinson's disease” (Frontiers in Aging Neuroscience, 2024).

Tests used:
Assay type in all cases: cell-based, human
[1] = system: GCLC; experiment: Western blot GCLC in MPP^+-treated BE(2)-M17 cells; settings: BE(2)-M17, compound 10 μM + 0.62 mM MPP^+; MPP^+ alone 86%; untreated = 100%
Experimental: (§1) HMC3 (2 × 10^5/6-well) or BE(2)-M17 (4 × 10^5/6-well) cells were lysed in buffer (composition: 50 mM Tris-HCl pH8.0, 2 mM EDTA pH8.0, 150 mM NaCl, 0.5% sodium deoxycholate, 0.1% SDS, 50 mM NaF, 1% NP40) containing the protease and/or phosphatase inhibitor cocktail (Sigma-Aldrich). After sonication, the lysates were centrifuged (12,000 × g for 10 min at 4°C) and protein concentrations determined (Bradford protein assay; Bio-Rad, Hercules, CA, USA). Aliquots of protein (20 μg) were separated by electrophoresis using 10%−12% SDS–polyacrylamide gel followed by transfer to a polyvinylidene fluoride (PVDF) membrane. After being blocked, the PVDF membrane was stained with NLRP3 (#15101s), caspase-1 (CASP1; #3866s), iNOS (#20609), IL-1β (#12242), CREB (#9192), BCL2-associated X (BAX; #2772; 1:1,000; Cell Signaling), IL-6 (#ab6672), TNF-α (#ab9739), GCLC (#ab41463), BDNF (#ab108319; 1:1,000; Abcam, Cambridge, UK), NLRP1 (#NBP-1-54899; 1:500; Novus Biologicals, Centennial, CO, USA), NRF2 (#ABE413), NQO1 (#N5288), p-CREB (Ser133; #06-519; 1:1,000; Sigma-Aldrich), PGC-1α (#GTX37356; 1:1,000; GeneTex, Irvine, CA, USA), B-cell lymphoma 2 (BCL2; #IR94-392; 1:1,000; iReal Biotechnology, New Taipei City, Taiwan), or glyceraldehyde-3-phosphate dehydrogenase (GAPDH; #30000002; 1:1,000; MDBio, Taipei, Taiwan) primary antibody at room temperature 2 h or 4°C overnight. The immune complexes were detected using horseradish peroxidase (HRP)-conjugated goat anti-mouse or goat anti-rabbit IgG antibody (1:5,000; GeneTex) and chemiluminescent HRP substrate (Millipore, Burlington, MA, USA). Immunoreactive bands were captured (ImageQuant™ LAS 4000, GE Healthcare, Chicago, IL, USA) and quantified (Multi Gauge V3.0 software, Fujifilm, Tokyo, Japan).

[2] = cytotoxicity MTT assay in BE(2)-M17 cells; settings: human, MTT, 1–100 μM, 24 h
Experimental: Human HMC3 microglial (CRL-3304) and neuroblastoma BE(2)-M17 (CRL-2267) cells were obtained from American Type Culture Collection. BE(2)-M17 develops a better dopaminergic phenotype than SH-SY5Y when treated with retinoic acid to direct neuronal differentiation (Carvajal-Oliveros et al., [2022]). Cells were routinely maintained in Dulbecco's Modified Eagle Medium-Nutrient Mixture F12 (DMEM-F12) supplemented with 10% fetal bovine serum (FBS; Thermo Fisher Scientific, Waltham, MA, USA) in a 37°C incubator, with 95% relative humidity and 5% CO2 (NuAire, Plymouth, MN, USA).
To evaluate cytotoxicity of LM compounds and MPP^+, HMC3 (1 × 10^4) or BE(2)-M17 (2 × 10^4) cells were plated on 96-well dishes, grown for 20 h, and treated with LM compounds (1–100 μM) or MPP^+ [HMC3: 0–8 mM; BE(2)-M17: 0–5 mM]. Next day, 20 μl of tetrazolium dye 3-(4,5-dimethylthiazol-2-yl)-2,5-diphenyltetrazolium bromide (MTT, 5 mg/ml; Sigma-Aldrich) was added to the cells at 37°C for 3 h. The resulted insoluble purple formazan products were dissolved by lysis buffer (composition: 10% Triton X-100, 0.1 N HCl, 18% isopropanol). The absorbance of the dissolved product at optical density (OD) 570 nm was read by using a FLx800 fluorescence microplate spectrophotometer (Bio-Tek, Winooski, VT, USA). The half maximal inhibitory concentration (IC50) of LM compounds was determined through the construction of a dose-response curve. MPP^+ at 4 mM (HMC3 cell viability: 65%−69%) or 0.62 mM [BE(2)-M17 cell viability: 79%−84%] was selected to induce inflammation for further experiments.

[3] = system: NRF2; experiment: Western blot NRF2 in MPP^+-treated BE(2)-M17 cells; settings: BE(2)-M17, compound 10 μM + 0.62 mM MPP^+; MPP^+ alone 75%; untreated = 100%
Experimental: as §1

[4] = system: PGC-1α; experiment: Western blot PGC-1α in MPP^+-treated BE(2)-M17 cells; settings: BE(2)-M17, compound 10 μM + 0.62 mM MPP^+; MPP^+ alone 75%; untreated = 100%
Experimental: as §1

[5] = system: caspase-3; experiment: caspase-3 activity assay in MPP^+-treated BE(2)-M17 cells
Experimental: BE(2)-M17 cells were plated onto six-well (4 × 10^5/well) and treated with retinoic acid, LM compounds (10 μM), and MPP^+ as described. Cells were collected on day 7 and lysed by six freeze/thaw cycles. Types of substrates applied were: Ac-Tyr-Val-Ala-Asp-7-amino-4-trifluoromethyl coumarin (YVAD-AFC) for caspase-1, Ac-Val-Glu-Ile-Asp-7-amino-4-trifluoromethyl coumarin (VEID-AFC) for caspase-6 (BioVision, Milpitas, CA, USA), and Ac-Asp-Glu-Val-Asp-7-amido-4-methylcoumarin (DEVD-AMC) for caspase-3 (Sigma-Aldrich). The reaction mixtures were incubated for 1.5 h at 37°C per the manufacturer's instructions. The fluorescence intensity at 400 nm excitation and 505 nm emission (caspase-1 and caspase-6) or 360 nm excitation and 460 nm emission (caspase-3) wavelengths were recorded (BioTek FLx800).

[6] = system: tyrosine hydroxylase (TH); experiment: tyrosine hydroxylase immunofluorescence staining in MPP^+-treated BE(2)-M17 cells; settings: for TH expression (immunofluorescence): BE(2)-M17, compound 10 μM + 0.62 mM MPP^+, MPP^+ alone 107%, untreated = 100%
Experimental: BE(2)-M17 cells were seeded in 24-well plate (5 × 10^4/well) and treated with retinoic acid, LM compounds (10 μM), and MPP^+ as described. On day 7, cells were fixed (4% PFA), permeabilized (0.1% Triton X-100), blocked (2% BSA), and stained with primary tyrosine hydroxylase (TH; a marker for dopamine-containing neurons; Haavik and Toska, [1998]) antibody (#sc-374047; 1:500; Santa Cruz Biotechnology, Santa Cruz, CA, USA) at 4°C overnight, followed by Alexa Fluor 488-donkey anti-mouse IgG secondary antibody (#A-21202; 1:1,000; Thermo Fisher Scientific) at room temperature for 2 h. Nuclei were detected using DAPI (0.1 μg/ml). Dopaminergic differentiation was examined by fluorescence imaging of Alexa Fluor 488 as described.

[7] = BE(2)-M17, compound 10 μM + 0.62 mM MPP^+, MPP^+-untreated = 100%

| Structure (SMILES) | GCLC level [1] | IC50 at 24 h ([2]; BE(2)-M17 neuroblastoma cells) | NRF2 level [3] | PGC-1α level [4] | caspase-3 activity [5, 7] | IC50 [2] | TH expression (immunofluorescence) [6] | TH immunofluorescence ([6]; BE(2)-M17, 0.62 mM MPP^+ alone, 40 h, untreated control = 100%) | caspase-3 activity ([5]; BE(2)-M17, 0.62 mM MPP^+ alone, untreated = 100%) |
| --- | --- | --- | --- | --- | --- | --- | --- | --- | --- |
| Cc1ccc(/C=C/C(=O)c2c(O)c3ccccc3oc2=O)cc1 [LM-016] | 99–106% | > 100 µM | 99–101% | 98–109% | 102% |  |  |  |  |
| CN(C)c1ccc(/C=C/C(=O)c2c(O)c3ccccc3oc2=O)cc1 [LM-021, (E)-3-(3-(4-(dimethylamino)phenyl)acryloyl)-4-hydroxy-2H-chromen-2-one] | 99–106% |  | 99–101% | 98–109% | 101% | > 100 µM | 165% |  |  |
| O=C(/C=C/c1ccccc1O)c1c(O)c2ccccc2oc1=O [LM-036] | 99–106% |  | 99–101% | 98–109% | 101% | > 100 µM | 128% |  |  |
| C[n+]1ccc(-c2ccccc2)cc1 [MPP^+, 1-methyl-4-phenyl pyridinium, reference compound] |  |  |  |  |  |  |  | 107% | 114% |
